Converted amounts (≈) assume the structure as drawn. Where two headings read alike, the source gives them in different places.
Tests used:
Assay type in all cases: cell-based
Candida albicans = assay: Minimum inhibitory concentration (MIC), visible growth, YPD broth; conditions: for MIC: Candida albicans
Description: (§1) • 1. Using a sterile inoculating loop, transfer bacteria/Candida albicans from frozen stock culture and streak them on a fresh LA plate. • 2. Incubate the plate at 37° C. overnight (o/n) (18-24 h).
(§2) • 1. Prepare bacterial culture by adding 20 ml Mueller Hinton broth (*) to a 250-ml Erlenmeyer flask with sidearm. • 2. Using a sterile inoculating loop, pick approximately 10 colonies from the o/n bacterial culture and transfer bacteria to the flask. • 3. Incubate the E-flask with bacteria on a rotating shaker at 37° C. until OD590=0.40. This OD should equal an approximate bacterial count of 1×10^8 cfu/ml (**) • This is measured using a colorimeter (or spectrophotometer). Set reference and press R (=reference) first, then measure the bacterial culture by pressing T (=test). • 4. At OD590 0.40, serially dilute the bacterial suspension 1:10 000 in Mueller Hinton broth to obtain a bacterial target concentration of 1×10^4 cfu/ml. Determine the initial inoculation by serially diluting 0.1 ml in 0.9 ml blanks of sterile PBS and plating 0.1 ml aliquots to LA plates, preferably. • 5. Different concentrations of the tested compound are prepared in 0.6-0.8 ml of the final dilution of bacterial suspension and placed in 2-ml test tubes. • 6. Incubate test tubes in an orbital shaker incubator at 37° C. for 24 h.
(§3) • 7. Analyze visible growth, i.e. “Foggy” or “Clear”. MIC is being defined as the interval between the highest “Foggy” and the lowest “Clear” concentration of the compound.
(*) When testing Candida albicans, Yeast extract Peptone Dextrose (YPD) broth is being used.
(**) For Candida albicans it is equal to 1×10^7
Different concentrations of PDEA were also prepared in Yeast extract Peptone Dextrose (YPD) broth. Candida albicans were inoculated to a concentration of 20 000 CFU/ml and incubated at 37° C. for 24 hours. Readouts were “Clear” and “Foggy”.
Different concentrations of the quaternary ammonium PDEA (Example 2) were also prepared in Yeast extract Peptone Dextrose (YPD) broth. Candida albicans were inoculated to a concentration of 20 000 CFU/ml and incubated at 37° C. for 24 hours. Readouts were “Clear” and “Foggy”.
Different concentrations of the Para position-PDEA” is (S)-4-pyridylthio cysteamine were also prepared in Yeast extract Peptone Dextrose (YPD) broth. Candida albicans were inoculated to a concentration of 20 000 CFU/ml and incubated at 37° C. for 24 hours. Readouts were “Clear” and “Foggy”.
Different concentrations of “Carboxylic acid PDEA” is 3-(2-Pyridyldithio)propanoic acid (CAS: 68617-64-1) were also prepared in Yeast extract Peptone Dextrose (YPD) broth. Candida albicans were inoculated to a concentration of 20 000 CFU/ml and incubated at 37° C. for 24 hours. Readouts were “Clear” and “Foggy”.

[1] = test system: Enterococcus faecium #11 (KI, Clinical Isolate); assay: Minimum inhibitory concentration (MIC), visible growth; conditions: for MIC: Enterococcus faecium
Description: as §1, §2, §3
(§4) Different concentrations of PDEA (Example 1) in Mueller Hinton medium were prepared. Bacteria were inoculated to a concentration of 20 000 CFU/ml and incubated at 37° C. for 24 hours. Minimum inhibitory concentrations (MICs) were determined by analyzing visible growth, i.e., readouts were “Clear” and “Foggy”.
(§5) Different concentrations of the quaternary ammonium PDEA (Example 2) in Mueller Hinton medium were prepared. Bacteria were inoculated to a concentration of 20 000 CFU/ml and incubated at 37° C. for 24 hours. Minimum inhibitory concentrations (MICs) were determined by analyzing visible growth, i.e., readouts were “Clear” and “Foggy”.
(§6) Different concentrations of this compound in Mueller Hinton medium were prepared. Bacteria were inoculated to a concentration of 20 000 CFU/ml and incubated at 37° C. for 24 hours. Minimum inhibitory concentrations (MICs) were determined by analyzing visible growth, i.e., readouts were “Clear” and “Foggy”.
(§7) Different concentrations of this compound were prepared in Mueller Hinton broth. Bacteria were inoculated to a concentration of 20 000 CFU/ml and incubated at 37° C. for 24 hours. Minimum inhibitory concentrations (MICs) were determined by analyzing visible growth, i.e., readouts were “Clear” and “Foggy”.

[2] = test system: Staphylococcus aureus B5381; assay: as above; conditions: for MIC: Staphylococcus aureus
Description: as §1, §2, §3, §4, §5, §6, §7

[3] = test system: Klebsiella pneumoniae AO15200; assay: as above; conditions: for MIC: Klebsiella pneumoniae
Description: as §1, §2, §3, §4, §5, §6, §7

Escherichia coli CFT073 = assay: as above; conditions: for MIC: Escherichia coli
Description: as §1, §2, §3, §4, §5, §6, §7

[4] = test system: Staphylococcus epidermidis Se19 (Clinical Isolate, Jan Ingemar Falk); assay: as above; conditions: for MIC: Staphylococcus epidermidis
Description: as §1, §2, §3, §4, §5, §6, §7

[5] = test system: Enterococcus faecalis #28 (KI, Clinical Isolate); assay: as above; conditions: for MIC: Enterococcus faecalis
Description: as §1, §2, §3, §4, §5, §6, §7

[6] = test system: Pseudomonas aeruginosa PA02; assay: as above; conditions: for MIC: Pseudomonas aeruginosa
Description: as §1, §2, §3, §4, §5, §6, §7

[7] = Mueller Hinton, 20 000 CFU/ml, 37° C., 24 hours, read-out: MIC

For `C[N+](C)(C)CCSSc1ccccn1` [Example 2, 2-(2-Pyridyldisulanyl)ethan-(trimethylammonium) chloride], the visible growth readout (Candida albicans; 0.11 mM) was “Foggy”, the visible growth readout (Candida albicans; 0.225 mM) was “Foggy” and the visible growth readout (Candida albicans; 0.55 mM) was “Clear”. The visible growth readout (Candida albicans; 1.1 mM) was “Clear”, the visible growth readout (Candida albicans; 2.2 mM) was “Clear” and the visible growth readout (Candida albicans; 4.4 mM) was “Clear”. For the same molecule, the MIC (Candida albicans; 24 h) was 225 to 550 µM, the visible growth readout ([1]; 0.025 mM) was “Foggy” and the visible growth readout ([1]; 0.055 mM) was “Foggy”. The visible growth readout ([1]; 0.11 mM) was “Clear”, the visible growth readout ([1]; 0.225 mM) was “Clear” and the MIC ([1]; 24 h) was 55 to 110 µM. For the same molecule, the visible growth readout ([2]; 0.11 mM) was “Foggy”, the visible growth readout ([2]; 0.225 mM) was “Foggy” and the visible growth readout ([2]; 0.55 mM) was “Foggy”. For the same molecule, the visible growth readout ([2]; 1.125 mM) was “Clear”, the MIC ([2]; B5381, 24 h) was 550 to 1120 µM and the visible growth readout ([3]; 0.11 mM) was “Foggy”. For the same molecule, the visible growth readout ([3]; 0.225 mM) was “Foggy”, the visible growth readout ([3]; 0.55 mM) was “Clear” and the visible growth readout ([3]; 1.125 mM) was “Clear”. For the same molecule, the MIC ([3]; AO15200, 24 h) was 225 to 550 µM, the visible growth readout (Escherichia coli CFT073; 0.11 mM) was “Foggy” and the visible growth readout (Escherichia coli CFT073; 0.225 mM) was “Foggy”. For the same molecule, the visible growth readout (Escherichia coli CFT073; 0.55 mM) was “Clear”, the visible growth readout (Escherichia coli CFT073; 1.125 mM) was “Clear” and the MIC (Escherichia coli CFT073; CFT073, 24 h) was 225 to 550 µM. The visible growth readout ([4]; 0.025 mM) was “Foggy”, the visible growth readout ([4]; 0.055 mM) was “Foggy” and the visible growth readout ([4]; 0.11 mM) was “Clear”. For the same molecule, the visible growth readout ([4]; 0.225 mM) was “Clear”, the MIC ([4]; 24 h) was 55 to 110 µM and the visible growth readout ([5]; 0.11 mM) was “Foggy”. The visible growth readout ([5]; 0.225 mM) was “Clear”, the visible growth readout ([5]; 0.55 mM) was “Clear” and the visible growth readout ([5]; 1.125 mM) was “Clear”. The MIC ([5]; 24 h) was 110 to 225 µM, the visible growth readout ([6]; 0.11 mM) was “Foggy” and the visible growth readout ([6]; 0.225 mM) was “Foggy”. For the same molecule, the visible growth readout ([6]; 0.55 mM) was “Foggy”, the visible growth readout ([6]; 1.125 mM) was “Clear” and the MIC ([6]; PA02, 24 h) was 550 to 1120 µM.

`NCCSSc1ccncc1` [Example 3, (S)-4-pyridylthio cysteamine] was tested, and the visible growth readout (Candida albicans; 0.01 mM) was “Foggy”, the visible growth readout (Candida albicans; 0.05 mM) was “Foggy” and the visible growth readout (Candida albicans; 0.1 mM) was “Foggy”. For the same molecule, the visible growth readout (Candida albicans; 0.2 mM) was “Foggy”, the visible growth readout (Candida albicans; 0.4 mM) was “Foggy” and the visible growth readout (Candida albicans; 0.8 mM) was “Foggy”. The visible growth readout (Candida albicans; 1.6 mM) was “Foggy”, the visible growth readout (Candida albicans; 3.2 mM) was “Clear” and the MIC (Candida albicans; YPD broth, 20 000 CFU/ml, 37° C., 24 hours, read-out: MIC) was 1600 to 3200 µM (≈ 298 to 596 µg/mL). For the same molecule, the visible growth readout ([1]; 0.01 mM) was “Foggy”, the visible growth readout ([1]; 0.05 mM) was “Foggy” and the visible growth readout ([1]; 0.1 mM) was “Foggy”. For the same molecule, the visible growth readout ([1]; 0.2 mM) was “Clear”, the visible growth readout ([1]; 0.4 mM) was “Clear” and the visible growth readout ([1]; 0.8 mM) was “Clear”. The visible growth readout ([1]; 1.6 mM) was “Clear”, the visible growth readout ([1]; 3.2 mM) was “Clear” and the MIC [1, 7] was 100 to 200 µM (≈ 18.6 to 37.3 µg/mL). For the same molecule, the visible growth readout ([2]; 0.01 mM) was “Foggy”, the visible growth readout ([2]; 0.05 mM) was “Foggy” and the visible growth readout ([2]; 0.1 mM) was “Foggy”. For the same molecule, the visible growth readout ([2]; 0.2 mM) was “Foggy”, the visible growth readout ([2]; 0.4 mM) was “Clear” and the visible growth readout ([2]; 0.8 mM) was “Clear”. For the same molecule, the visible growth readout ([2]; 1.6 mM) was “Clear”, the visible growth readout ([2]; 3.2 mM) was “Clear” and the MIC ([2]; B5381, Mueller Hinton, 20 000 CFU/ml, 37° C., 24 hours, read-out: MIC) was 200 to 400 µM (≈ 37.3 to 74.5 µg/mL). The visible growth readout ([3]; 0.01 mM) was “Foggy”, the visible growth readout ([3]; 0.05 mM) was “Foggy” and the visible growth readout ([3]; 0.1 mM) was “Foggy”. For the same molecule, the visible growth readout ([3]; 0.2 mM) was “Foggy”, the visible growth readout ([3]; 0.4 mM) was “Clear” and the visible growth readout ([3]; 0.8 mM) was “Clear”. For the same molecule, the visible growth readout ([3]; 1.6 mM) was “Clear”, the visible growth readout ([3]; 3.2 mM) was “Clear” and the MIC ([3]; AO15200, Mueller Hinton, 20 000 CFU/ml, 37° C., 24 hours, read-out: MIC) was 200 to 400 µM (≈ 37.3 to 74.5 µg/mL). The visible growth readout (Escherichia coli CFT073; 0.01 mM) was “Foggy”, the visible growth readout (Escherichia coli CFT073; 0.05 mM) was “Foggy” and the visible growth readout (Escherichia coli CFT073; 0.1 mM) was “Foggy”. For the same molecule, the visible growth readout (Escherichia coli CFT073; 0.2 mM) was “Foggy”, the visible growth readout (Escherichia coli CFT073; 0.4 mM) was “Clear” and the visible growth readout (Escherichia coli CFT073; 0.8 mM) was “Clear”. For the same molecule, the visible growth readout (Escherichia coli CFT073; 1.6 mM) was “Clear”, the visible growth readout (Escherichia coli CFT073; 3.2 mM) was “Clear” and the MIC (Escherichia coli CFT073; CFT073, Mueller Hinton, 20 000 CFU/ml, 37° C., 24 hours, read-out: MIC) was 200 to 400 µM (≈ 37.3 to 74.5 µg/mL). The visible growth readout ([4]; 0.01 mM) was “Foggy”, the visible growth readout ([4]; 0.05 mM) was “Foggy” and the visible growth readout ([4]; 0.1 mM) was “Foggy”. The visible growth readout ([4]; 0.2 mM) was “Clear”, the visible growth readout ([4]; 0.4 mM) was “Clear” and the visible growth readout ([4]; 0.8 mM) was “Clear”. For the same molecule, the visible growth readout ([4]; 1.6 mM) was “Clear”, the visible growth readout ([4]; 3.2 mM) was “Clear” and the MIC [4, 7] was 100 to 200 µM (≈ 18.6 to 37.3 µg/mL). The visible growth readout ([5]; 0.01 mM) was “Foggy”, the visible growth readout ([5]; 0.05 mM) was “Foggy” and the visible growth readout ([5]; 0.1 mM) was “Foggy”. For the same molecule, the visible growth readout ([5]; 0.2 mM) was “Foggy”, the visible growth readout ([5]; 0.4 mM) was “Clear” and the visible growth readout ([5]; 0.8 mM) was “Clear”. For the same molecule, the visible growth readout ([5]; 1.6 mM) was “Clear”, the visible growth readout ([5]; 3.2 mM) was “Clear” and the MIC [5, 7] was 200 to 400 µM (≈ 37.3 to 74.5 µg/mL). For the same molecule, the visible growth readout ([6]; 0.01 mM) was “Foggy”, the visible growth readout ([6]; 0.05 mM) was “Foggy” and the visible growth readout ([6]; 0.1 mM) was “Foggy”. The visible growth readout ([6]; 0.2 mM) was “Foggy”, the visible growth readout ([6]; 0.4 mM) was “Foggy” and the visible growth readout ([6]; 0.8 mM) was “Clear”. For the same molecule, the visible growth readout ([6]; 1.6 mM) was “Clear”, the visible growth readout ([6]; 3.2 mM) was “Clear” and the MIC ([6]; PA02, Mueller Hinton, 20 000 CFU/ml, 37° C., 24 hours, read-out: MIC) was 400 to 800 µM (≈ 74.5 to 149 µg/mL).

Source: US20250339415A1, “DISULFIDE COMPOUNDS AS MEDICAMENTS” (CYTACOAT AB, priority 2021, published 2025)
